In patent publication US9249178B2, “Tricyclic nucleosides and oligomeric compounds prepared therefrom” (UNIVERSITÄT BERN, priority 2012, dated 2016):

What was measured:
complementary DNA = assay: Tm study of 10mer oligomeric compounds duplexed to DNA; type: binding; conditions: 150 mM NaCl, 10 mM phosphate, 0.1 mM EDTA, pH 7; for ΔTm/mod (° C.) vs DNA: duplex with complementary DNA, compared to unmodified 10mer A01
Description: (§1) The relative ability of a chemically-modified oligomeric compound to bind to complementary nucleic acid strands, as compared to natural oligonucleotides, is measured by obtaining the melting temperature of a hybridization complex of said chemically-modified oligomeric compound with its complementary unmodified target nucleic acid. The melting temperature (Tm), a characteristic physical property of double helixes, denotes the temperature in degrees centigrade at which 50% helical versus coiled (unhybridized) forms are present. Tm (also commonly referred to as binding affinity) is measured by using the UV spectrum to determine the formation and breakdown (melting) of hybridization. Base stacking, which occurs during hybridization, is accompanied by a reduction in UV absorption (hypochromicity). Consequently a reduction in UV absorption indicates a higher Tm. Following standard automated DNA synthesis protocols oligomeric compounds were prepared comprising one or more tricyclic nucleosides for Tm studies. After cleavage from the solid support, the oligomeric compounds were purified by ion exchange HPLC and analyzed by LCMS using standard procedures. The Tm of the modified 10mer oligomeric compounds were compared to an unmodified 10mer DNA oligonucleotide when duplexed to either DNA or RNA. Tm's were determined using a Cary 100 Bio spectrophotometer with the Cary Win UV thermal program was used to measure absorbance vs. temperature. For the Tm experiments, the oligomeric compounds were prepared at a concentration of […] in a buffer of 150 mM NaCl, 10 mM phosphate, 0.1 mM EDTA at pH 7. The concentration determined at 85° C. was […] after mixing of equal volumes of selected oligomeric compound and complementary RNA or DNA. The oligomeric compounds were hybridized with a complementary RNA or DNA by heating the duplex to 90° C. for 5 minutes and then cooling to room temperature. Tm measurements were taken using a spectrophotometer while the duplex solution was heated in a cuvette at a rate of 0.5° C./min starting at 15° C. until the temperature was 85° C. Tm values were determined using Vant Hoff calculations (A260 vs temperature curve) using non self-complementary sequences where the minimum absorbance related to the duplex and the maximum absorbance related to the non-duplex single strand are manually integrated into the program.

complementary RNA = assay: Tm study of 10mer oligomeric compounds duplexed to RNA; type: binding; conditions: 150 mM NaCl, 10 mM phosphate, 0.1 mM EDTA, pH 7; for ΔTm/mod (° C.) vs RNA: duplex with complementary RNA, compared to unmodified 10mer A01
Description: as §1

Question: With “AACTGTCACG (unmodified DNA) [A01, unmodified 10mer DNA oligonucleotide, phosphodiester linkages, reference compound]” as the substance, how does the “Tm duplexed with DNA” value (complementary DNA) read?
Answer: 47.9 °C

Question: And the “ΔTm/mod (° C.) vs DNA” value (complementary DNA)?
Answer: 0 °C

Question: And the “Tm duplexed with RNA” value (complementary RNA)?
Answer: 48.3 °C

Question: What about the “ΔTm/mod (° C.) vs RNA” value (complementary RNA) of the same substance?
Answer: 0 °C

Question: With AaAaCaTbGaTbCaAaCaGa [A14] as the substance, how does the “ΔTm/mod (° C.) vs DNA” value (complementary DNA) read?
Answer: +1.1 °C

Question: And the “ΔTm/mod (° C.) vs RNA” value (complementary RNA)?
Answer: +2.0 °C

Question: “AaAaCaTaGaTaCaAaCaGa [A11, reference compound]” was tested. Which “ΔTm/mod (° C.) vs DNA” value (complementary DNA) did it give?
Answer: +1.3 °C

Question: What about the “ΔTm/mod (° C.) vs RNA” value (complementary RNA) of the same substance?
Answer: +2.1 °C

Question: Which “ΔTm/mod (° C.) vs DNA” value (complementary DNA) does the source give for AaAaCaTdGaTaCaAaCaGa [A13] here?
Answer: −3.8 °C

Question: What about the “ΔTm/mod (° C.) vs RNA” value (complementary RNA) of the same substance?
Answer: −2.6 °C

Question: Which “ΔTm/mod (° C.) vs DNA” value (complementary DNA) does the source give for “AACTfGTfCACG (AACT_{f}GT_{f}CACG; as printed in the source, key not given here) [A10, 10mer phosphodiester DNA with two tricyclic nucleosides of subscript f]” here?
Answer: −2.0 °C

Question: What about the “ΔTm/mod (° C.) vs RNA” value (complementary RNA) of the same substance?
Answer: +1.3 °C

Question: What does the source list for “AACTdGTdCACG (AACT_{d}GT_{d}CACG; as printed in the source, key not given here) [A08, 10mer phosphodiester DNA with two tricyclic nucleosides of subscript d]”?
Answer: ΔTm/mod (° C.) vs DNA (complementary DNA): −0.6 °C; ΔTm/mod (° C.) vs RNA (complementary RNA): +1.2 °C

Question: Which results are given for “AACTdGTCACG (AACT_{d}GTCACG; as printed in the source, key not given here) [A05, 10mer phosphodiester DNA with one tricyclic nucleoside of subscript d]”?
Answer: ΔTm/mod (° C.) vs DNA (complementary DNA): +0.4 °C; ΔTm/mod (° C.) vs RNA (complementary RNA): +2.4 °C

Question: Which “ΔTm/mod (° C.) vs DNA” value (complementary DNA) does the source give for “AACTGTdCACG (AACTGT_{d}CACG; as printed in the source, key not given here) [A03, 10mer phosphodiester DNA with one tricyclic nucleoside of subscript d, subscripts drawn in drawing 18]” here?
Answer: +0.5 °C

Question: And the “ΔTm/mod (° C.) vs RNA” value (complementary RNA)?
Answer: +2.1 °C

Question: How did the “ΔTm/mod (° C.) vs DNA” value (complementary DNA) turn out when AACTbGTbCACG [A06] was run?
Answer: −0.7 °C

Question: And the “ΔTm/mod (° C.) vs RNA” value (complementary RNA)?
Answer: +0.5 °C

Question: Which “ΔTm/mod (° C.) vs DNA” value (complementary DNA) does the source give for AACTGTbCACG [A02] here?
Answer: −0.9 °C

Question: And the “ΔTm/mod (° C.) vs RNA” value (complementary RNA)?
Answer: +0.4 °C

Question: What does the source list for AaAaCaTcGaTcCaAaCaGa [A15]?
Answer: ΔTm/mod (° C.) vs DNA (complementary DNA): +1.1 °C; ΔTm/mod (° C.) vs RNA (complementary RNA): +2.0 °C

Question: Which results are given for “AACTeGTeCACG (AACT_{e}GT_{e}CACG; as printed in the source, key not given here) [A09, 10mer phosphodiester DNA with two tricyclic nucleosides of subscript e (tc^hdT)]”?
Answer: ΔTm/mod (° C.) vs DNA (complementary DNA): −13.0 °C; ΔTm/mod (° C.) vs RNA (complementary RNA): −10.2 °C

Question: Which “ΔTm/mod (° C.) vs DNA” value (complementary DNA) does the source give for AACTbGTCACG [A04] here?
Answer: +0.1 °C

Question: What about the “ΔTm/mod (° C.) vs RNA” value (complementary RNA) of the same substance?
Answer: +2.4 °C

Question: What does the source list for AACTcGTcCACG [A07]?
Answer: ΔTm/mod (° C.) vs DNA (complementary DNA): −1.0 °C; ΔTm/mod (° C.) vs RNA (complementary RNA): +1.3 °C

Question: With AaAaCaTdGaTdCaAaCaGa [A16] as the substance, how does the “ΔTm/mod (° C.) vs DNA” value (complementary DNA) read?
Answer: +1.1 °C

Question: What about the “ΔTm/mod (° C.) vs RNA” value (complementary RNA) of the same substance?
Answer: +2.3 °C

Question: AaAaCaTaGaTdCaAaCaGa [A12] was tested. Which “ΔTm/mod (° C.) vs DNA” value (complementary DNA) did it give?
Answer: −2.8 °C

Question: And the “ΔTm/mod (° C.) vs RNA” value (complementary RNA)?
Answer: −0.6 °C
